Measurements published in patent US20240215577A1, “FUNGICIDAL PYRIDONES” (FMC Corporation, priority 2021, published 2024).

Experiments:
Type in all cases: in vivo
Zymoseptoria tritici = experiment: Test A: wheat leaf blotch, preventive spray on wheat seedlings; conditions: 100 = 100% disease control, 0 = no control; for Test A disease control rating: 50 ppm
Source text: (§1) General protocol for preparing test suspensions for Tests A-F: the test compounds were first dissolved in acetone in an amount equal to 3% of the final volume and then suspended at the desired concentration (in ppm) in acetone and purified water (50/50 mix by volume) containing 250 ppm of the surfactant PEG400 (polyhydric alcohol esters). The resulting test suspensions were then used in Tests A-F.
(§2) The test solution was sprayed to the point of run-off on wheat seedlings. The following day the seedlings were inoculated with a spore suspension of Zymoseptoria tritici (the causal agent of wheat leaf blotch) and incubated in a saturated atmosphere at 24° C. for 48 h, and then moved to a growth chamber at 20° C. for 17 days, after which time disease ratings were made.
(§3) A rating of 100 indicates 100% disease control and a rating of 0 indicates no disease control (relative to the controls). A dash (-) indicates the compound was not tested.

[1] = tested on: Puccinia recondita f. sp. tritici; experiment: Test B: wheat leaf rust, preventive spray on wheat seedlings; conditions: 100 = 100% disease control, 0 = no control; for Test B disease control rating: 50 ppm
Source text: as §1
as §2, with “Puccinia recondita f. sp.” for “Zymoseptoria”, “rust)” for “blotch)”, “20°” for “24°”, “24” for “48”, “7” for “17”, “time visual” for “time”
as §3

[2] = tested on: Blumeria graminis f. sp. tritici; experiment: Test C: wheat powdery mildew, preventive spray on wheat seedlings; conditions: 100 = 100% disease control, 0 = no control; for Test C disease control rating: 50 ppm
Source text: as §1
The test suspension was sprayed to the point of run-off on wheat seedlings. The following day the seedlings were inoculated with a spore dust of Blumeria graminis f. sp. tritici, (also known as Eysiphe graminis f. sp. tritici, the causal agent of wheat powdery mildew) and incubated in a growth chamber at 20° C. for 8 days, after which time visual disease ratings were made.
as §3

Phakopsora pachyrhizi = experiment: Test D: Asian soybean rust, preventive spray on soybean seedlings; conditions: 100 = 100% disease control, 0 = no control; for Test D disease control rating: 50 ppm
Source text: as §1
The test solution was sprayed to the point of run-off on soybean seedlings. The following day the seedlings were inoculated with a spore suspension of Phakopsora pachyrhizi (the causal agent of Asian soybean rust) and incubated in a saturated atmosphere at 22° C. for 24 h and then moved to a growth chamber at 22° C. for 8 days, after which time visual disease ratings were made.
as §3

Botrytis cinerea = experiment: Test E: tomato Botrytis, preventive spray on tomato seedlings; conditions: 100 = 100% disease control, 0 = no control; for Test E disease control rating: 50 ppm
Source text: as §1
(§4) The test suspension was sprayed to the point of run-off on tomato seedlings. The following day the seedlings were inoculated with a spore suspension of Botrytis cinerea (the causal agent of tomato Botrytis) and incubated in a saturated atmosphere at 20° C. for 48 h, and then moved to a growth chamber at 24° C. for 3 days, after which time visual disease ratings were made.
as §3

Alternaria solani = experiment: Test F: tomato early blight, preventive spray on tomato seedlings; conditions: 100 = 100% disease control, 0 = no control; for Test F disease control rating: 50 ppm
Source text: as §1
as §4, with “Alternaria solani” for “Botrytis cinerea”, “early blight)” for “Botrytis)”, “27°” for “20°”, “20°” for “24°”
as §3

CCc1c(-c2ccc(F)cc2Cl)c(-c2cc(OC)ccc2Cl)cn(C)c1=O [Compound 47]
Test A disease control rating (Zymoseptoria tritici): 81%
Test B disease control rating [1]: 100%
Test C disease control rating [2]: 99%
Test D disease control rating (Phakopsora pachyrhizi): 51%
Test E disease control rating (Botrytis cinerea): 91%
Test F disease control rating (Alternaria solani): 99%

Cn1cc(-c2ccccc2Cl)c(-c2ccc(F)cc2F)c(Cl)c1=O [Compound 48]
Test A disease control rating (Zymoseptoria tritici): 99%
Test B disease control rating [1]: 99%
Test C disease control rating [2]: 72%
Test D disease control rating (Phakopsora pachyrhizi): 77%
Test E disease control rating (Botrytis cinerea): 96%
Test F disease control rating (Alternaria solani): 96%

COc1ccc(F)c(-c2cn(C)c(=O)c(Cl)c2-c2ccc(F)cc2F)c1 [Compound 49]
Test A disease control rating (Zymoseptoria tritici): 100%
Test B disease control rating [1]: 100%
Test C disease control rating [2]: 0%
Test D disease control rating (Phakopsora pachyrhizi): 73%
Test E disease control rating (Botrytis cinerea): 96%
Test F disease control rating (Alternaria solani): 100%

CCOc1ccc(Cl)c(-c2cn(C)c(=O)c(Cl)c2-c2ccc(F)cc2F)c1 [Compound 52]
Test A disease control rating (Zymoseptoria tritici): 100%
Test B disease control rating [1]: 100%
Test C disease control rating [2]: 91%
Test D disease control rating (Phakopsora pachyrhizi): 81%
Test E disease control rating (Botrytis cinerea): 99%
Test F disease control rating (Alternaria solani): 99%

COc1cc(OC)cc(-c2cn(C)c(=O)cc2-c2ccc(F)cc2Cl)c1 [Compound 53, 4-(2-chloro-4-fluorophenyl)-5-(3,5-dimethoxyphenyl)-1-methyl-2(1H)-pyridinone]
pest or weed control at 250 ppm (Zymoseptoria tritici; Zymoseptoria tritici, 250 ppm, read-out: Test A disease control rating): 100%
pest or weed control at 250 ppm ([1]; Puccinia recondita, 250 ppm, read-out: Test B disease control rating): 97%
pest or weed control at 250 ppm ([2]; Blumeria graminis, 250 ppm, read-out: Test C disease control rating): 56%
pest or weed control at 250 ppm (Phakopsora pachyrhizi; Phakopsora pachyrhizi, 216 h, 250 ppm, read-out: Test D disease control rating): 59%
pest or weed control at 250 ppm (Botrytis cinerea; Botrytis cinerea, 250 ppm, read-out: Test E disease control rating): 99%
pest or weed control at 250 ppm (Alternaria solani; Alternaria solani, 250 ppm, read-out: Test F disease control rating): 0%

Cc1c(-c2cn(C)c(=O)c(Cl)c2-c2ccc(F)cc2Cl)cccc1[N+](=O)[O-] [Compound 54]
Test A disease control rating (Zymoseptoria tritici): 100%
Test B disease control rating [1]: 99%
Test C disease control rating [2]: 0%
Test D disease control rating (Phakopsora pachyrhizi): 75%
Test E disease control rating (Botrytis cinerea): 92%
Test F disease control rating (Alternaria solani): 26%

Cn1cc(-c2sccc2Cl)c(-c2ccc(F)cc2Cl)c(Cl)c1=O [Compound 55]
Test A disease control rating (Zymoseptoria tritici): 96%
Test B disease control rating [1]: 90%
Test C disease control rating [2]: 0%
Test D disease control rating (Phakopsora pachyrhizi): 0%
Test E disease control rating (Botrytis cinerea): 97%
Test F disease control rating (Alternaria solani): 0%

COc1ccc(Cl)c(-c2cn(C)c(=O)c(Cl)c2-c2ccc(C#N)cc2Cl)c1 [Compound 56]
Test A disease control rating (Zymoseptoria tritici): 100%
Test B disease control rating [1]: 100%
Test C disease control rating [2]: 98%
Test D disease control rating (Phakopsora pachyrhizi): 97%
Test E disease control rating (Botrytis cinerea): 96%
Test F disease control rating (Alternaria solani): 99%

COc1ccc(Cl)c(-c2cn(C)c(=O)c(Cl)c2-c2ccccc2C(F)(F)F)c1 [Compound 57]
Test A disease control rating (Zymoseptoria tritici): 98%
Test B disease control rating [1]: 99%
Test C disease control rating [2]: 64%
Test D disease control rating (Phakopsora pachyrhizi): 44%
Test E disease control rating (Botrytis cinerea): 90%
Test F disease control rating (Alternaria solani): 0%

COc1ccc(Cl)c(-c2cn(C)c(=O)cc2-c2ccc(Br)cc2Cl)c1 [Compound 58]
Test A disease control rating (Zymoseptoria tritici): 98%
Test B disease control rating [1]: 55%
Test C disease control rating [2]: 0%
Test D disease control rating (Phakopsora pachyrhizi): 0%
Test E disease control rating (Botrytis cinerea): 90%
Test F disease control rating (Alternaria solani): 0%

COc1ccc(Cl)c(-c2cn(C)c(=O)cc2-c2ccc(C#N)cc2Cl)c1 [Compound 59]
Test A disease control rating (Zymoseptoria tritici): 99%
Test B disease control rating [1]: 92%
Test C disease control rating [2]: 0%
Test D disease control rating (Phakopsora pachyrhizi): 0%
Test E disease control rating (Botrytis cinerea): 95%
Test F disease control rating (Alternaria solani): 0%

Cc1cc(F)ncc1-c1cn(C)c(=O)c(Cl)c1-c1ccc(F)cc1Cl [Compound 60]
Test A disease control rating (Zymoseptoria tritici): 99%
Test B disease control rating [1]: 95%
Test C disease control rating [2]: 73%
Test D disease control rating (Phakopsora pachyrhizi): 65%
Test E disease control rating (Botrytis cinerea): 97%
Test F disease control rating (Alternaria solani): 40%
